The source of these data is patent US8008329B2 (Dong Wha Pharmaceutical Co., Ltd., priority 2008, dated 2011).

The test system of this assay is osteoclast differentiation. Briefly: Osteoclast differentiation in co-culture of mouse bone marrow cells and ST2 cells, TRAP staining (Examples 8-9). The format is cell-based. The following applies: for % number of osteoclast (vs. solvent control group): day 7; for activity at 0.1 µM: Mus musculus, Osteoclast, 168 h, day 7, read-out: % number of osteoclast (vs. solvent control group). In a few lines: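 Readout was TRAP-positive multinucleated (≥6 nuclei) cells on day 7, reported as % of 0.1% DMSO control, mean±SD of 4 wells. Cells were mouse (male ddY) bone marrow plus ST2 co-cultures driven by 10^−8 M vitamin D3/dexamethasone. Benzamidines, alendronic acid or risedronic acid were added at 0.1 μM alone or combined, with media renewed days 3 and 5.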

[1] abbreviates: Combination treatment (alendronic acid + compounds), 0.1 μM each.
The mark [2] stands for this setting: Combination treatment (risedronic acid + compounds), 0.1 μM each.
Where [3] appears, read: Individual treatment (compounds), 0.1 μM.

SMILES strings stand for the structures. Marks after values point to notes of the source that are not given here.

On to `COCCN(C)c1nc(-c2ccc(OCCCCCOc3ccc(C(=N)NO)cc3)cc2)c(CN2CCOCC2)s1` [Compound 319, N-hydroxy-4-[5-(4-{2-[(2-methoxy-ethyl) -methyl-amino]-5-morpholin-4-ylmethyl-thiazol-4-yl}-phenoxy)-pentyloxy]-benzamidine], for which the “% number of osteoclast (vs. solvent control group)” value (“% number of osteoclast” below) was 25 ± 2.6^ab % under setting [1] and 11 ± 3.3^ac % under setting [2]. In addition, the activity at 0.1 µM under setting [3] worked out at 54 ± 5.9%.
For the molecule `CCN(C)c1nc(-c2ccc(OCCCCCOc3ccc(C(=N)NO)cc3)cc2)c(CN2CCOCC2)s1` [Compound 311, N-hydroxy-4-(5-{4-[2-(ethyl-methyl-amino)-5-morpholin-4-ylmethyl-thiazol-4-yl]-phenoxy}-pentyloxy)-benzamidine], the “% number of osteoclast” value is listed as 21 ± 4.2^b % under setting [1] and 12 ± 5.8^ac % under setting [2]. Moreover, the activity at 0.1 µM under setting [3] worked out at 46 ± 10.7%.
Consider `Cc1sc(NC(=O)c2ccncc2)nc1-c1ccc(OCCCCCOc2ccc(C(=N)NO)cc2)cc1` [Compound 91, N-hydroxy-4-{5-[4-(5-methyl-2-(4-pyridylcarbonyl)amino-1,3-thiazol-4-yl)phenoxy]pentyloxy}-benzamidine], for which the “% number of osteoclast” value under setting [1] is given as 35 ± 2.7^ab % and the “% number of osteoclast” value under setting [2] is given as 32 ± 7.0^ac %. Also, the activity at 0.1 µM under setting [3] was 60 ± 8.8%.
As for `Cc1nc(-c2ccc(OCCCCCOc3ccc(C(=N)NO)cc3)cc2)c(CN2CCCC2)s1` [Compound 304, N-hydroxy-4-{5-[4-(2-methyl-5-pyrolidin-1-ylmethyl-thiazol-4-yl)-phenoxy]-pentyloxy}-benzamidine], the “% number of osteoclast” value was 27 ± 6.4^ab % under setting [1], 16 ± 4.5^ac % under setting [2] and 54 ± 6.4% under setting [3].
On to `CCCCc1sc(N(CCC)CCC)nc1-c1ccc(OCCCCCOc2ccc(C(=N)NO)cc2)cc1` [Compound 146, N-hydroxy-4-{5-[4-(5-butyl-2-dipropylamino-1,3-thiazol-4-yl)phenoxy]pentyloxy}-benzamidine], for which the “% number of osteoclast” value reads like this: under setting [1], 79 ± 7.8%; under setting [2], 60 ± 13.6^c %. The activity at 0.1 µM under setting [3] amounted to 81 ± 8.9%.
The like results for `CN(C)c1nc(-c2ccc(OCCCCCOc3ccc(C(=N)NO)cc3)cc2)c(CC2CCCC2)s1` [Compound 163, N-hydroxy-4-{5-[4-(5-cyclopentylmethyl-2-dimethylamino-1,3-thiazol-4-yl)phenoxy]pentyloxy}-benzamidine] were, in that order, 55 ± 7.6%, 41 ± 7.3^ac % and 65 ± 8.8%.
In the case of `CCCN(CCC)c1nc(-c2ccc(OCCCCCOc3ccc(C(=N)NO)cc3)cc2)c(CC2CCCC2)s1` [Compound 149, N-hydroxy-4-{5-[4-(5-cyclopentylmethyl-2-dipropylamino-1,3-thiazol-4-yl)phenoxy]pentyloxy}-benzamidine], the “% number of osteoclast” value under setting [1] is recorded as 40 ± 8.8% and the “% number of osteoclast” value under setting [2] is 31 ± 2.5^ac %. Under setting [3], the activity at 0.1 µM was 63 ± 9.9%.
Regarding `Cc1nc(-c2ccc(OCCCCCOc3ccc(C(=N)NO)cc3)cc2)c(CCCl)s1` [Compound 42, N-hydroxy-4-{5-[4-(5-(2-chloro-ethyl)-2-methyl-1,3-thiazol-4-yl)phenoxy]pentyloxy}-benzamidine], the “% number of osteoclast” value is 33 ± 1.9^ab % under setting [1] and 32 ± 8.0^ac % under setting [2]. Besides, under setting [3], the activity at 0.1 µM was determined as 69 ± 11.4%.
Regarding `Cc1nc(-c2ccc(OCCCCCOc3ccc(C(=N)NO)cc3)cc2)c(CCNC(C)C)s1` [Compound 219, N-hydroxy-4-(5-{4-[5-(2-isopropylamino-ethyl)-2-methyl-thiazol-4-yl]-phenoxy}-pentyloxy)-benzamidine], the “% number of osteoclast” value runs as follows: under setting [1], 51 ± 5.4^b %; under setting [2], 40 ± 3.8^c %. For the same molecule, the activity at 0.1 µM under setting [3] turned out to be 61 ± 10.5%.
For the molecule `CN1CCN(CCc2sc(C3CCCCC3)nc2-c2ccc(OCCCCCOc3ccc(C(=N)NO)cc3)cc2)CC1` [Compound 247, N-hydroxy-4-[5-(4-{2-cyclohexyl-5-[2-(4-methyl-piperazin-1-yl)-ethyl]-thiazol-4-yl}-phenoxy)-pentyloxy]-benzamidine], the “% number of osteoclast” value reads like this: under setting [1], 39 ± 3.7^ab %; under setting [2], 17 ± 4.5^ac %. Also, the activity at 0.1 µM under setting [3] was found to be 63 ± 4.2%.
As to `CCc1sc(N2CCCCC2)nc1-c1ccc(OCCCCCOc2ccc(C(=N)NO)cc2)cc1` [Compound 166, N-hydroxy-4-{5-[4-(5-ethyl-2-piperidino-1,3-thiazol-4-yl)phenoxy]pentyloxy}-benzamidine], the “% number of osteoclast” value is on record as 43 ± 9.4^ab % under setting [1] and 35 ± 3.9^ac % under setting [2]. The activity at 0.1 µM under setting [3] is 73 ± 4.4%.
On to `Cc1nc(-c2ccc(OCCCCCOc3ccc(C(=N)NO)cc3)cc2)c(CN2CCOCC2)s1` [Compound 293, N-hydroxy-4-{5-[4-(2-methyl-5-morpholin-4-ylmethyl-thiazol-4-yl)-phenoxy]-pentyloxy}-benzamidine], for which the “% number of osteoclast” value is, setting by setting: under setting [1], 15 ± 2.6^b %; under setting [2], 11 ± 2.6^c %. In addition, the activity at 0.1 µM under setting [3] was determined as 36 ± 10%.
`COCCNc1nc(-c2ccc(OCCCCCOc3ccc(C(=N)NO)cc3)cc2)c(C)s1` [Compound 94, N-hydroxy-4-{5-[4-(2-(2-methoxyethyl)amino-5-methyl-1,3-thiazol-4-yl)phenoxy]pentyloxy}-benzamidine]: the “% number of osteoclast” value is, setting by setting: under setting [1], 20 ± 4.8^ab %; under setting [2], 16 ± 3.3^ac %. Also, under setting [3], the activity at 0.1 µM came out at 45 ± 3%.
The like results for `Cc1nc(-c2ccc(OCCCCCOc3ccc(C(=N)NO)cc3)cc2)c(CNCCN2CCOCC2)s1` [Compound 302, N-hydroxy-4-[5-(4-{2-methyl-5-[(2-morpholin-4-yl-ethylamino)-methyl]-thiazol-4-yl}-phenoxy)-pentyloxy]-benzamidine] were, in that order, 16 ± 4.5^ab %, 9 ± 2.8^ac % and 59 ± 10.6%.
For `CN(C)c1nc(-c2ccc(OCCCCCOc3ccc(C(=N)NO)cc3)cc2)c(CCN2CCOCC2)s1` [Compound 266, N-hydroxy-4-(5-{4-[2-dimethylamino-5-(2-morpholin-4-yl-ethyl)-thiazol-4-yl]-phenoxy}-pentyloxy)-benzamidine], the “% number of osteoclast” value under setting [1] was 36 ± 9.6^ab % and the “% number of osteoclast” value under setting [2] was 26 ± 4.3^ac %. The activity at 0.1 µM under setting [3] worked out at 64 ± 4%.
On to `Cc1nc(-c2ccc(OCCCCCOc3ccc(C(=N)NO)c(O)c3)cc2)c(C(C)C)s1` [Compound 188, 2,N-dihydroxy-4-{5-[4-(5-isopropyl-2-methyl-1,3-thiazol-4-yl)-phenoxy]-pentyloxy}-benzamidine], for which the “% number of osteoclast” value reads like this: under setting [1], 35 ± 3.2^ab %; under setting [2], 23 ± 5.1^ac %. For the same molecule, the activity at 0.1 µM under setting [3] amounted to 56 ± 5.4%.
